Assay results reported in patent US10072011B2, “Substituted bridged urea analogs as sirtuin modulators” (GlaxoSmithKline Intellectual Property (No.2) Limited, priority 2014, dated 2018).

Biological target: T1, SIRT1 (Homo sapiens, UniProt Q96EB6)
T1 sequence (Q96EB6 1-747): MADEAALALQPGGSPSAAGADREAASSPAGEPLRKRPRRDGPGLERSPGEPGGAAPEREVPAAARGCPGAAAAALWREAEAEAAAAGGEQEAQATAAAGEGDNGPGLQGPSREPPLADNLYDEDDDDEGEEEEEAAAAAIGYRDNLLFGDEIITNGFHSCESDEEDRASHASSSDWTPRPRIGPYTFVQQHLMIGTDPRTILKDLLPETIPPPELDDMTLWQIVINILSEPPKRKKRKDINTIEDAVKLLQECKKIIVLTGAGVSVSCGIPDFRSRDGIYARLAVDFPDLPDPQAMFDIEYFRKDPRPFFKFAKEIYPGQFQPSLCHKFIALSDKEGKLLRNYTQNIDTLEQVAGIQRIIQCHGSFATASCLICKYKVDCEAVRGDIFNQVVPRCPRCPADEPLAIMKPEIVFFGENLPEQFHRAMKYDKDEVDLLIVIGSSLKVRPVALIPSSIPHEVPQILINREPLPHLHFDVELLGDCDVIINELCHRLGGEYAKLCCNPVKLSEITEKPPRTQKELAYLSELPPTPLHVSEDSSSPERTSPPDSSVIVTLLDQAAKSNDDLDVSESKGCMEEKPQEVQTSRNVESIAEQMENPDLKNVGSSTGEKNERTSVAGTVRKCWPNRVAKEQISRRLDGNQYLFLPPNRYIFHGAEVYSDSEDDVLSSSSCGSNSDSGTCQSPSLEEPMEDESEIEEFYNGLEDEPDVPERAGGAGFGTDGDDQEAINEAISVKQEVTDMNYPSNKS
Test: Trp mass spectrometry assay of SIRT1 activation (Ac-R-H-K-K(Ac)-W-NH2 peptide)
Assay type: biochemical
Settings: Trp peptide 0.5 μM, 120 μM βNAD+, 10 nM SIRT1, 25 min at 25° C.; for Emax: 25 min, relative to control (100%), read-out: TRP MAX RESP (percent maximum fold activation)
Method in brief: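 Mass spectrometry read-out (OAADPR formed, or deacetylated Trp peptide) after a 25 min NAD-dependent deacetylation by E. coli-expressed His-SIRT1, stopped with formic acid.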

Row | Emax [%] | TRP Activity (EC1.5, concentration of test compound that results in 150% activation of SIRT1) | SMILES
1 | > 150 | A (EC1.5<1 μM) | O=C(NC[C@H](O)C(F)(F)F)c1ccc2c(n1)N(C(=O)Nc1ccc(F)cn1)[C@H]1CCN2C1 [Example 81, (4S)—N5-(5-fluoropyridin-2-yl)-N7-((S)-3,3,3-trifluoro-2-hydroxypropyl)-3,4-dihydro-1,4-methanopyrido[2,3-b][1,4]diazepine-5,7(2H)-dicarboxamide]
2 | > 150 | A (EC1.5<1 μM) | Cc1nc(NC(=O)N2c3nc(C(=O)N[C@H](C)C(F)(F)F)ccc3N3CC[C@H]2C3)co1 [Example 25, (4S)—N5-(2-methyloxazol-4-yl)-N7-((R)-1,1,1-trifluoropropan-2-yl)-3,4-dihydro-1,4-methanopyrido[2,3-b][1,4]diazepine-5,7(2H)-dicarboxamide]
3 | > 150 | B (EC1.5 1-25 μM) | CNC(=O)c1ccc2c(n1)N(C(=O)Nc1ccccn1)[C@H]1CCN2C1 [Example 212, (4S)—N7-methyl-N5-(pyridin-2-yl)-3,4-dihydro-1,4-methanopyrido[2,3-b][1,4]diazepine-5,7(2H)-dicarboxamide]
4 |  | A (EC1.5<1 μM) | O=C(NC1CC1(F)F)c1ccc2c(n1)N(C(=O)Nc1ccc(F)cn1)[C@H]1CCN2C1 (single isomer, unassigned) [Example 243]
5 | > 150 | A (EC1.5<1 μM) | CC[C@@H](CO)NC(=O)c1ccc2c(n1)N(C(=O)Nc1ccccn1)[C@H]1CCN2C1 [Example 30, (4S)—N7-((S)-1-hydroxybutan-2-yl)-N5-(pyridin-2-yl)-3,4-dihydro-1,4-methanopyrido[2,3-b][1,4]diazepine-5,7(2H)-dicarboxamide]
6 | > 150 | A (EC1.5<1 μM) | O=C(NC1CC1(F)F)c1ccc2c(n1)N(C(=O)Nc1cnccn1)[C@H]1CCN2C1 (single isomer, unassigned) [Example 272]
7 | > 150 | A (EC1.5<1 μM) | O=C(NCC(F)(F)F)c1cc(O)c2c(n1)N(C(=O)Nc1ccccn1)[C@H]1CCN2C1 [Example 261, (4S)-9-hydroxy-N5-(pyridin-2-yl)-N7-(2,2,2-trifluoroethyl)-3,4-dihydro-1,4-methanopyrido[2,3-b][1,4]diazepine-5,7(2H)-dicarboxamide]
8 | > 150 | B (EC1.5 1-25 μM) | Cc1ncc(-c2ccnc(NC(=O)N3c4nc(C(=O)N[C@H](C)C(F)(F)F)c(Cl)cc4N4CC[C@H]3C4)c2)o1 [Example 281, (4S)-8-chloro-N5-(4-(2-methyloxazol-5-yl)pyridin-2-yl)-N7-((R)-1,1,1-trifluoropropan-2-yl)-3,4-dihydro-1,4-methanopyrido[2,3-b][1,4]diazepine-5,7(2H)-dicarboxamide]
9 | > 150 | A (EC1.5<1 μM) | C[C@@H](NC(=O)c1ccc2c(n1)N(C(=O)Nc1cc[nH]n1)[C@H]1CCN2C1)C(F)(F)F [Example 68, (4S)—N5-(1H-pyrazol-3-yl)-N7-((R)-1,1,1-trifluoropropan-2-yl)-3,4-dihydro-1,4-methanopyrido[2,3-b][1,4]diazepine-5,7(2H)-dicarboxamide]
10 | > 150 | A (EC1.5<1 μM) | C[C@@H](NC(=O)c1ccc2c(n1)N(C(=O)Nc1ccc(F)cn1)[C@H]1CCN2C1)C(F)(F)F [Example 129, (4S)—N5-(5-fluoropyridin-2-yl)-N7-((R)-1,1,1-trifluoropropan-2-yl)-3,4-dihydro-1,4-methanopyrido[2,3-b][1,4]diazepine-5,7(2H)-dicarboxamide]
11 | > 150 | A (EC1.5<1 μM) | O=C(NCC1CC1)c1ccc2c(n1)N(C(=O)Nc1ncccn1)[C@H]1CCN2C1 [Example 97, (4S)—N7-(cyclopropylmethyl)-N5-(pyrimidin-2-yl)-3,4-dihydro-1,4-methanopyrido[2,3-b][1,4]diazepine-5,7(2H)-dicarboxamide]
12 | > 150 | A (EC1.5<1 μM) | CC(C)[C@@H](C)NC(=O)c1ccc2c(n1)N(C(=O)Nc1ccc(F)cn1)[C@H]1CCN2C1 [Example 80, (4S)—N5-(5-fluoropyridin-2-yl)-N7-((R)-3-methylbutan-2-yl)-3,4-dihydro-1,4-methanopyrido[2,3-b][1,4]diazepine-5,7(2H)-dicarboxamide]
13 | > 150 | A (EC1.5<1 μM) | O=C(NCc1ccc(F)cc1)c1ccc2c(n1)N(C(=O)Nc1cc(OC[C@H](O)CO)ccn1)[C@H]1CCN2C1 [Example 240, (4S)—N5-(4-((R)-2,3-dihydroxypropoxy)pyridin-2-yl)-N7-(4-fluorobenzyl)-3,4-dihydro-1,4-methanopyrido[2,3-b][1,4]diazepine-5,7(2H)-dicarboxamide]
14 | > 150 | A (EC1.5<1 μM) | Cc1cc(NC(=O)N2c3nc(C(=O)N[C@H](C)C(F)(F)F)ccc3N3CC[C@H]2C3)ncc1F [Example 238, (4S)—N5-(5-fluoro-4-methylpyridin-2-yl)-N7-((R)-1,1,1-trifluoropropan-2-yl)-3,4-dihydro-1,4-methanopyrido[2,3-b][1,4]diazepine-5,7(2H)-dicarboxamide]
15 | > 150 | A (EC1.5<1 μM) | O=C(NC1CC1)c1ccc2c(n1)N(C(=O)Nc1cc(OC[C@@H](O)CO)ccn1)[C@H]1CCN2C1 [Example 250, (4S)—N7-cyclopropyl-N5-(4-((S)-2,3-dihydroxypropoxy)pyridin-2-yl)-3,4-dihydro-1,4-methanopyrido[2,3-b][1,4]diazepine-5,7(2H)-dicarboxamide]
16 | > 150 | A (EC1.5<1 μM) | O=C(NCC1CC1)c1ccc2c(n1)N(C(=O)Nc1ccc(F)cn1)[C@H]1CCN2C1 [Example 38, (4S)—N7-(cyclopropylmethyl)-N5-(5-fluoropyridin-2-yl)-3,4-dihydro-1,4-methanopyrido[2,3-b][1,4]diazepine-5,7(2H)-dicarboxamide]
17 | > 150 | B (EC1.5 1-25 μM) | COc1cc(NC(=O)N2c3nc(C(=O)NCC4CC4)ccc3N3CC[C@H]2C3)ncn1 [Example 113, (4S)—N7-(cyclopropylmethyl)-N5-(6-methoxypyrimidin-4-yl)-3,4-dihydro-1,4-methanopyrido[2,3-b][1,4]diazepine-5,7(2H)-dicarboxamide]
18 | > 150 | B (EC1.5 1-25 μM) | COCC(C)NC(=O)c1ccc2c(n1)N(C(=O)Nc1ccccn1)[C@H]1CCN2C1 (stereo partly drawn) [Example 11, (4S)—N-7-(1-methoxypropan-2-yl)-N-5-(pyridin-2-yl)-3,4-dihydro-1,4-methanopyrido [2,3-b] [1, 4] diazepine-5, 7(2H)-dicarboxamide]
19 | > 150 | A (EC1.5<1 μM) | C[C@@H](NC(=O)c1ccc2c(n1)N(C(=O)Nc1n[nH]c3ncccc13)[C@H]1CCN2C1)C(F)(F)F [Example 163, (4S)—N5-(1H-pyrazolo[3,4-b]pyridin-3-yl)-N7-((R)-1,1,1-trifluoropropan-2-yl)-3,4-dihydro-1,4-methanopyrido[2,3-b][1,4]diazepine-5,7(2H)-dicarboxamide]
20 | > 150 | A (EC1.5<1 μM) | O=C(NCC1CC1)c1ccc2c(n1)N(C(=O)Nc1cccnn1)[C@H]1CCN2C1 [Example 96, (4S)—N7-(cyclopropylmethyl)-N5-(pyridazin-3-yl)-3,4-dihydro-1,4-methanopyrido[2,3-b][1,4]diazepine-5,7(2H)-dicarboxamide]
21 | > 150 | A (EC1.5<1 μM) | O=C(NCC(F)(F)F)c1nc2c(cc1O)N1CC[C@@H](C1)N2C(=O)Nc1ccccn1 [Example 285, (4S)-8-hydroxy-N5-(pyridin-2-yl)-N7-(2,2,2-trifluoroethyl)-3,4-dihydro-1,4-methanopyrido[2,3-b][1,4]diazepine-5,7(2H)-dicarboxamide]
